Drawing on PubChem BioAssay (NCI), this text covers GI50 and TGI for 8 molecules.

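Values below derive from 48-hour exposures of cells grown in 96-well plates, with endpoints linearly interpolated between the two concentrations bracketing the appropriate inhibition level. GI50 is the concentration that inhibits growth by half. TGI marks complete inhibition of growth.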

Test systems include UACC-62 melanoma; SF-295 CNS; HCT-15 colon; HCT-116 colon; MOLT-4 leukemia; NCI-H226 lung; DU-145 prostate; MDA-MB-231 breast; SN12C renal; OVCAR-8 ovarian.
Holding throughout (assay): growth of human tumour cells (NCI), 48 h

Take `c1ccc(-c2nn(-c3ccccc3)[n+](-c3ccccc3-c3ccccc3)n2)cc1`: the GI50 in the assay with UACC-62 melanoma is 0.74 µM; with SF-295 CNS, 1.94 µM; with HCT-15 colon it was 21.5 µM; with HCT-116 colon, 0.699 µM; with MOLT-4 leukemia, 1.8 µM; in the assay on NCI-H226 lung it was 2.83 µM. In addition, the GI50 with DU-145 prostate is 3.11 µM; in the assay with MDA-MB-231 breast, 0.235 µM; with SN12C renal it was 1.82 µM; with OVCAR-8 ovarian, 0.757 µM. The TGI in the assay on UACC-62 melanoma is 14.9 µM; in the assay on SF-295 CNS it was 8.99 µM; in the assay on HCT-15 colon, above 100 µM; in the assay on HCT-116 colon, above 33.3 µM; in the assay with MOLT-4 leukemia, 17.6 µM; in the assay with NCI-H226 lung, above 100 µM. The TGI in the assay with DU-145 prostate is above 71.7 µM; in the assay with MDA-MB-231 breast, 9.21 µM; in the assay with SN12C renal, 15.5 µM; in the assay with OVCAR-8 ovarian, 12.5 µM.
For `Cc1cncc2cccc(S(=O)(=O)N3CCCNC[C@@H]3C)c12`, the GI50 in the assay with UACC-62 melanoma was above 47 µM; in the assay with SF-295 CNS, 4.46 µM; in the assay with HCT-15 colon it was 16.3 µM; in the assay with HCT-116 colon it was 7.56 µM; with MOLT-4 leukemia it was 20.7 µM; with NCI-H226 lung, 2 µM. For the same molecule, the GI50 with DU-145 prostate was 36.1 µM; in the assay on MDA-MB-231 breast it was 14.1 µM; in the assay with SN12C renal, 24.8 µM; in the assay with OVCAR-8 ovarian, 38.9 µM. Further, the TGI in the assay on UACC-62 melanoma is above 100 µM; with SF-295 CNS, above 100 µM; in the assay on HCT-15 colon it was above 100 µM; with HCT-116 colon, above 100 µM; in the assay with MOLT-4 leukemia, above 96.3 µM; in the assay on NCI-H226 lung, 46.1 µM. Also, the TGI is above 100 µM with DU-145 prostate, 74.2 µM in the assay on MDA-MB-231 breast, above 100 µM in the assay on SN12C renal and above 100 µM with OVCAR-8 ovarian.
Regarding `Clc1cc(-c2csc(Cl)c2)cs1`, the TGI with UACC-62 melanoma, in the assay with SF-295 CNS, with HCT-15 colon, in the assay on HCT-116 colon, with MOLT-4 leukemia and in the assay on NCI-H226 lung was above 100 µM throughout. The TGI with DU-145 prostate, with MDA-MB-231 breast, in the assay on SN12C renal and in the assay on OVCAR-8 ovarian was above 100 µM throughout.
For `COc1cc(C2CC(c3cc(Cl)c(C)cc3O)=NN2c2ccc(S(N)(=O)=O)cc2)cc(OC)c1OC` (centres undefined), the GI50 was 2.47 µM with UACC-62 melanoma; 1.8 µM with SF-295 CNS; 3.28 µM in the assay with HCT-15 colon; 1.63 µM in the assay on HCT-116 colon; 4.46 µM in the assay with MOLT-4 leukemia; 3.73 µM in the assay on NCI-H226 lung. In addition, the GI50 was 3.4 µM in the assay on DU-145 prostate, 2.09 µM with MDA-MB-231 breast, 2.97 µM with SN12C renal and 3.92 µM with OVCAR-8 ovarian. Moreover, the TGI in the assay with UACC-62 melanoma is 8.5 µM; with SF-295 CNS it was 3.96 µM; in the assay with HCT-15 colon, 11.8 µM; with HCT-116 colon, 2.98 µM; with MOLT-4 leukemia it was above 100 µM; in the assay on NCI-H226 lung, 13.3 µM. The TGI in the assay on DU-145 prostate came to 11.2 µM; in the assay on MDA-MB-231 breast it was 5.01 µM; in the assay on SN12C renal it was 10.3 µM; with OVCAR-8 ovarian it was 12.9 µM.
As to `C[C@@H]1CC[C@H]2C(CN(C)CC3=C(C(F)(F)F)O[C@@H]4O[C@@]5(C)CC[C@H]6[C@H](C)CC[C@@H]3[C@@]46OO5)=C(C(F)(F)F)O[C@@H]3O[C@@]4(C)CC[C@@H]1[C@]32OO4`, the GI50 in the assay on UACC-62 melanoma was 12.4 µM; in the assay with HCT-15 colon it was 0.506 µM; in the assay on HCT-116 colon, 0.415 µM; with MOLT-4 leukemia, above 25.4 µM; in the assay with NCI-H226 lung it was 3.71 µM; with DU-145 prostate it was 2.69 µM. Besides, the GI50 in the assay with MDA-MB-231 breast is 5.9 µM; with SN12C renal, 7.47 µM; with OVCAR-8 ovarian it was 1.58 µM. In addition, the TGI in the assay with UACC-62 melanoma was above 100 µM; in the assay with SF-295 CNS, above 51.5 µM; in the assay on HCT-15 colon it was above 100 µM; in the assay with HCT-116 colon, 32.9 µM; in the assay with MOLT-4 leukemia it was above 100 µM; with NCI-H226 lung, above 64.9 µM. For the same molecule, the TGI with DU-145 prostate is 16.8 µM; in the assay with MDA-MB-231 breast it was above 93.1 µM; with SN12C renal it was above 100 µM; with OVCAR-8 ovarian it was above 53.6 µM.
Turning to `Clc1ccc2c(NCCNc3nc(Cl)nc4ccccc34)ccnc2c1`, the GI50 with UACC-62 melanoma was 1.81 µM; in the assay on SF-295 CNS, 1.75 µM; in the assay with HCT-15 colon, 1.14 µM; in the assay on HCT-116 colon it was 0.218 µM; in the assay with MOLT-4 leukemia, 0.332 µM; in the assay with NCI-H226 lung, 1.82 µM. The GI50 in the assay with DU-145 prostate is 1.26 µM; with MDA-MB-231 breast, 0.36 µM; with SN12C renal, 1.48 µM; in the assay on OVCAR-8 ovarian it was 1.49 µM. In addition, the TGI in the assay with UACC-62 melanoma was 3.49 µM; in the assay on SF-295 CNS it was 3.26 µM; with HCT-15 colon, 2.55 µM; in the assay on HCT-116 colon, 0.531 µM; with MOLT-4 leukemia it was 1.25 µM; in the assay on NCI-H226 lung, 3.53 µM. Also, the TGI was 2.59 µM in the assay with DU-145 prostate, 1.21 µM with MDA-MB-231 breast, 3.2 µM with SN12C renal and 3.34 µM in the assay on OVCAR-8 ovarian.
Turning to `O=C1c2ccccc2-c2c1c1ccccc1c(=O)n2CCCNCCO`, the GI50 in the assay on UACC-62 melanoma is 0.304 µM; with SF-295 CNS it was 0.568 µM; in the assay on HCT-15 colon it was 0.554 µM; in the assay on HCT-116 colon it was 0.298 µM; in the assay with MOLT-4 leukemia it was 0.0879 µM; in the assay on NCI-H226 lung it was 1.45 µM. The GI50 with DU-145 prostate is 0.189 µM; with MDA-MB-231 breast, 1.5 µM; in the assay with SN12C renal it was 0.454 µM; with OVCAR-8 ovarian it was 0.239 µM. Besides, the TGI in the assay with UACC-62 melanoma was found to be 1.74 µM; in the assay with SF-295 CNS, 4.02 µM; in the assay on HCT-15 colon it was 6.13 µM; with HCT-116 colon, 3.53 µM; with MOLT-4 leukemia, 0.522 µM; in the assay with NCI-H226 lung, 5.38 µM. Also, the TGI in the assay on DU-145 prostate turned out to be 4.72 µM; in the assay with MDA-MB-231 breast, 6.55 µM; in the assay on SN12C renal, 6.25 µM; in the assay on OVCAR-8 ovarian, 11.6 µM.
For the molecule `Cc1cccc(Cc2cnc(NC(=O)/C=C/c3ccco3)s2)c1`, the GI50 is 0.0542 µM in the assay on UACC-62 melanoma; 0.0437 µM in the assay on SF-295 CNS; 0.0427 µM with HCT-15 colon; 0.0425 µM with HCT-116 colon; 0.0561 µM in the assay with MOLT-4 leukemia; 0.797 µM with NCI-H226 lung. In addition, the GI50 in the assay with DU-145 prostate was 0.0382 µM; in the assay with MDA-MB-231 breast, 0.0771 µM; in the assay with SN12C renal it was 0.073 µM; with OVCAR-8 ovarian, 0.0535 µM. Further, the TGI is above 100 µM with UACC-62 melanoma; above 100 µM with SF-295 CNS; above 100 µM in the assay with HCT-15 colon; above 100 µM in the assay on HCT-116 colon; above 100 µM in the assay on MOLT-4 leukemia; above 23.1 µM in the assay on NCI-H226 lung. The TGI in the assay with DU-145 prostate was above 100 µM; in the assay on MDA-MB-231 breast it was above 73.1 µM; with SN12C renal it was above 100 µM; in the assay with OVCAR-8 ovarian, above 100 µM.
